Data set [1] concerns mouse sperm. The data set is described as follows: Flagellar beat analysis of single sperm. The data set is classed as cell-based. Conditions: stimulation with 25 mM NaHCO3; 5 μM Example 1 or 10 nM Example 133. On the procedure: An inverted dark-field video microscope (IX73; Olympus) with a 10× objective (mouse sperm) and a 20× objective (human sperm) (UPLSAPO, NA 0.8; Olympus) was combined with a high-speed camera (ORCA Fusion; Hamamatsu). Dark-field videos were recorded with a frame rate of 200 Hz. The temperature of the heated stage was set to 37° C. (stage top incubator WSKMX; TOKAI HIT).
An inverted dark-field video microscope (IX73; Olympus) with a 10×objective (mouse sperm) or a 20×objective (human sperm) (UPLSAPO, NA 0.8; Olympus) was combined with a high-speed camera (ORCA Fusion; Hamamatsu). Dark-field videos were recorded with a frame rate of 200 Hz. The temperature of the heated stage was set to 37° C. (stage top incubator WSKMX; TOKAI HIT). The images were preprocessed with the imageJ plugin SpermQ Preparator (Gaussian blur with sigma 0.5 px; Subtract background method with radius 5 px) and analyzed using the ImageJ plugin SpermQ [Reference 84]. The beat frequency was determined from the highest peak in the frequency spectrum of the curvature time course, obtained by Fast Fourier Transform.

Data set [2] concerns epididymal mouse sperm. The data set is described as follows: Ex vivo cAMP in epididymal sperm from injected mice. As to conditions: 50 mg/kg i.p.; for bicarbonate-induced cAMP increase ex vivo: sperm isolated one hour after injection, minimally diluted. On the procedure:
Sperm (50 μl) isolated at indicated time points (between 1 hour and 24 hours post-injection) were incubated in […] (1:20 dilution) or 450 μl (1:200 dilution) non-capacitating or capacitating TYH media for 12 minutes. Intracellular cAMP levels were quantified using the Direct cAMP ELISA (Enzo) as above.

For data set [3], the system named is fertility of male mice. The data set is described as follows: Timed mating of inhibitor-injected male mice. The data set is classed as in vivo, mouse. As to conditions: for Contraceptive efficacy: compared to vehicle-injected control. On the procedure:
Single-housed naïve (i.e., uninjected and virgin) male and female C57B1/6 mice were acclimatized to reverse light cycle (dark: 11 am to 11 pm) for at least two weeks. […] Pregnancy and litter size were assessed in two ways. Either females were sacrificed 7 days following mating and implanted embryos counted, or females were permitted to go to term (21 days) and pups counted. A subset of the pups (both male and female) born from breakthrough pregnancies were permitted to mature and their fertility assessed in standard matings.

Data set [4] deals with human sperm. The data set is described as follows: Intracellular cAMP in sperm in vitro. The data set is classed as cell-based. As to conditions: for bicarbonate-induced cAMP rise: 5 μM Example 1 or 10 nM Example 133, capacitating media. The protocol:
(§1) cAMP generation was measured in mouse and human sperm. For mouse sperm, aliquots of 2×10^6 mouse sperm were incubated for 12 minutes in the presence or absence of sAC inhibitor in non-capacitating or capacitating TYH buffer. For human sperm, aliquots of 2×10^6 human sperm were incubated for 30 minutes in the presence or absence of sAC inhibitor in non-capacitating or capacitating HTF buffer. In both cases, 0.1% DMSO was used as vehicle control.
(§2) After 5 min, 150 μl of sperm/inhibitor mix was diluted into 1.35 ml non-capacitating or capacitating media with no inhibitor. After 12 minutes (mouse sperm) or 30 minutes (human sperm), sperm were sedimented by centrifugation at 2,000×g for 3 minutes and lysed in 200 μl HCl for 10 minutes. Sperm lysates were centrifuged at 2,000×g for 3 minutes and the cAMP in the supernatant was acetylated and quantified using the Direct cAMP ELISA (Enzo).

Data set [5] relates to mouse sperm. The data set is described as follows: Intracellular cAMP in sperm in vitro. It is filed as cell-based. As to conditions: for bicarbonate-induced cAMP rise: 5 μM Example 1 or 10 nM Example 133, capacitating media, 12 minutes. The protocol: as §1, §2
The test system of data set [6] is human sperm. The data set is described as follows: Flagellar beat analysis of single sperm. Conditions: stimulation with 25 mM NaHCO3; 0.2 μM Example 1 (FIG. 13), 10 nM Example 133.
Text: Motile sperm were allowed to swim up into the HTF layer, while immotile sperm, as well as other cells or tissue debris, did remain in the ejaculate fraction.
In data set [7] the test system is immobilized sAC protein. The data set is described as follows: Binding kinetics by surface plasmon resonance. The protocol: After coupling, remaining reactive groups on the chip's surface were blocked with 1 M ethanolamine followed by 350 mM EDTA to wash away any free Ni^2+. […] All experiments included reference channels; i.e., inhibitor run over parallel channels without immobilized protein. Binding kinetics were determined by subtracting responses in the reference channels from responses in the active channels. Curves were fitted, and kon and koff values were determined using the Biacore 8K Insight Evaluation Software Version 2.0 (Cytiva) and a 1:1 binding kinetics model.

Data set [8] concerns human sperm. The data set is described as follows: Human sperm hyperactivation (CASA). As to conditions: for hyperactivation of human sperm in vitro: capacitating media, inhibitor present; for inhibition of hyperactivation following dilution into inhibitor-free media: preincubation with 10 μM Example 1 or 100 nM Example 133, diluted 1:100. The data set is classed as cell-based. The protocol: For human sperm, hyperactivation was assessed via CASA following incubation for 1 hour in non-capacitating HTF buffer or capacitating HTF buffer supplemented with 25 mM HCO3 and 5 mg/ml BSA in the presence or absence of the indicated concentration of sAC inhibitor; 0.1% DMSO was used as vehicle control. For rescue experiments, sperm were incubated in the presence of 5 mM db-cAMP and 500 μM IBMX. 8 μl sperm suspension was placed onto a microscope slide (Gold Seal, Erie Scientific, Portsmouth, NH) and covered with a 18×18 mm coverslip (globe Scientific, Mahway, NJ) to create a […] imaging chamber. CASA was performed following analysis guidelines provided by the company, i.e., 30 frames were acquired at a rate of 60 Hz, at least 200 sperm were analyzed per condition. The following parameters were measured: mean path velocity (VAP, μm/sec), curvilinear velocity (VCL, μm/sec), straight-line velocity (VSL, μm/sec), amplitude of lateral head displacement (ALH, μm), and beat cross frequency (BCF, Hz). Human sperm were considered hyperactivated when presenting VCL ≥150 μm/sec, LIN <50%, and ALH ≥[…].
Motility parameters were determined 1 to 45 minutes post dilution, DMSO-treated non-capacitated and capacitated human sperm were used as control. To calculate the percentage of inhibition, the hyperactivation percentage of sperm diluted in inhibitor-containing- or inhibitor-free media was normalized to the hyperactivation percentage of vehicle-treated capacitated sperm at the respective time point and subtracted from 100%.

In data set [9] the test system is epididymal mouse sperm. The data set is described as follows: Ex vivo sperm motility (CASA) from injected mice. The data set is classed as in vivo. As to conditions: for sperm motility ex vivo: one hour post-injection, diluted 1:200 in inhibitor-free media. The protocol: For ex vivo assessment of mouse sperm from inhibitor-injected mice, sperm (25 μl) isolated at the indicated time points (1 hour to 24 hours post-injection) were loaded on a […] Leja slide (Hamliton Thorne) and placed on a microscope stage at 37° C. Sperm movements of 10 fields of at least 500 sperm were examined using computer-assisted sperm analysis (CASA) via Hamilton-Thorne digital image analyzer (IVOS II, Hamilton Thorne Research, Beverly, MA) with the following parameters: 30 frames, frame rate: 60 Hz, cell size: 30-170 μm^2.

The mark [10] stands for this setting: 50 mg/kg i.p. to males, mating time 8 hours.
Where [11] appears, read: 50 mg/kg i.p. to males, mating time 5 hours.
Where [12] appears, read: 50 mg/kg i.p. to males, mating time 11 hours.
[13] abbreviates: 50 mg/kg i.p., mating 4 days, 1 week post-injection (recovery of fertility).
Where [14] appears, read: preincubation 5 min in 5 μM Example 1 or 10 nM Example 133, then dilution (legend 1:10; text 100-fold).

Experimental findings from US20240239774A1, “SOLUBLE ADENYLYL CYCLASE (SAC) INHIBITORS AND USES THEREOF” (Cornell University, priority 2021, published 2024) are described below.

Structures are written as SMILES. Values joined by “and” are separate entries in the source; they are usually repeats but may differ in a detail not shown here. Equal values may be shown once. “Also recorded” adds a separate entry of the source.

For `Cc1c(Cc2ccccc2)c(-c2cc(Cl)nc(N)n2)nn1C` [Example 1, 4-(4-benzyl-1,5-dimethyl-pyrazol-3-yl)-6-chloro-pyrimidin-2-amine], in data set [1], the “bicarbonate-induced change in flagellar beating / beat frequency” value is recorded as “prevents bicarbonate-induced changes in flagellar beating pattern”. Further, in data set [2] (sperm diluted 1:200 ex vivo), the “bicarbonate-responsive cAMP synthesis ex vivo” value was “restored”. Also, in data set [2], the “bicarbonate-induced cAMP increase ex vivo” value was “absent”. In data set [3] (setting [10]), the “Pregnancy pairings (pregnancies per total pairings)” value is listed as “(14/45)”, the Pregnancy rate was found to be 31.1% and the Contraceptive efficacy came to 25%. Further, the “bicarbonate-induced cAMP rise” value in data set [4] is recorded as “blocks the bicarbonate-induced cAMP rise”. The “bicarbonate-induced cAMP rise” value in data set [5] is listed as “blocks the bicarbonate-induced cAMP rise”. Further, the “bicarbonate-induced change in flagellar beating / beat frequency” value in data set [6] is “prevents bicarbonate-induced changes in flagellar beating pattern”. Moreover, the “off-rate (T1/2)” value in data set [7] came to 0.333 min. Besides, in data set [8], the “hyperactivation of human sperm in vitro” value was “blocked hyperactivation” and the “inhibition of hyperactivation following dilution into inhibitor-free media” value is “lost”. Besides, the “sperm motility ex vivo” value in data set [9] (50 mg/kg i.p.) is reported as “indistinguishable from sperm isolated from vehicle-injected mice”.
Turning to `Nc1nc(Cl)cc(-c2nn(C(F)F)cc2Cc2ccccc2OCCN2CCOC[C@H]2CO)n1` [Example 133], the “bicarbonate-induced change in flagellar beating / beat frequency” value in data set [1] and in data set [6] was “more potent than Example 1” each time. In [2] (9 hours post-injection, diluted 1:200), the “cAMP responsiveness ex vivo following dilution” value is reported as “partially recovered”. The “cAMP response ex vivo following dilution” value in data set [2] (sperm isolated 1 hour or 4.5 hours post-injection, diluted 1:200) is on record as “remained inhibited”. The “bicarbonate-induced cAMP increase ex vivo” value in [2] is “absent”. Moreover, in data set [3] (50 mg/kg i.p.), the “mouse behavior, movements and mating behaviors” value was “did not adversely affect mouse behavior”. Besides, the “Pregnancy pairings (pregnancies per total pairings)” value is on record as “(3/92)” in [3] (setting [11]), “(3/40)” in data set [3] (setting [10]), “(7/45)” in data set [3] (setting [12]) and “(13/14)” in data set [3] (setting [13]). Moreover, the Pregnancy rate is 3.3% and 3.2% in [3] (setting [11]); 7.2% and 7.5% in data set [3] (setting [10]); 16% and 15.6% in [3] (setting [12]); 93% and 92.9% in data set [3] (setting [13]). In addition, the Contraceptive efficacy in [3] (setting [11]) came out at 90%; in data set [3] (setting [10]), 82%; in data set [3] (setting [12]) it was 65%. Also, the “bicarbonate-induced cAMP rise” value in [4] and in data set [5] was “completely block” each time. Further, the “inhibition of bicarbonate-induced cAMP synthesis after dilution into inhibitor-free media” value in data set [4] (setting [14]) and in data set [5] (setting [14]) was “survived a 100-fold dilution; also recorded: inhibits capacitation induced cAMP rise in diluted sperm” each time. Also, the “off-rate (T1/2)” value in data set [7] stood at 75.8 min. In data set [8], the “hyperactivation of human sperm in vitro” value was “blocked hyperactivation”. The “inhibition of hyperactivation following dilution into inhibitor-free media” value in [8] is “persisted”. Also, the “sperm that recovered (progressive) motility” value in data set [9] (50 mg/kg i.p., 9 hours post injection, diluted 1:200) came out at 20%. Moreover, the “sperm motility ex vivo” value in [9] (50 mg/kg i.p.) was “essentially immotile”. In [9] (exogenous membrane-permeable cAMP rescued motility), the cytotoxicity to sperm entry was “not cytotoxic”.
